Measured values published in patent US4605744A, “Imidazole derivatives” (Hoffmann-La Roche Inc., priority 1985, dated 1986).

Columns and labels:
Assay in all cases: In vitro antibacterial activity (MIC)
Type in all cases: cell-based
E. aerogenes 503-478 = conditions: E. aerogenes 503-478
In short: (§1)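 Twofold-style dilution series (128 to 0.008 μg/ml) made in Mueller-Hinton broth, dispensed, then inoculated with 1.5 μl of a 10^-2 overnight-culture dilution. Plates sealed, held overnight at 37° C, inspected with a viewer.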

S. marcescens S714 = conditions: S. marcescens S714
In short: as §1

E. cloacae 6951 = conditions: E. cloacae 6951
In short: as §1

E. cloacae 214 = conditions: E. cloacae 214
In short: as §1

E. cloacae 9295 = conditions: E. cloacae 9295
In short: as §1

S. aureus Smith = conditions: S. aureus Smith
In short: as §1

C. diversus CDC 1663-72 = conditions: C. diversus CDC 1663-72
In short: as §1

K. pneumoniae 8357 = conditions: K. pneumoniae 8357
In short: as §1

K. pneumoniae HE7 = conditions: K. pneumoniae HE7
In short: as §1

P. vulgaris 100 = conditions: P. vulgaris 100
In short: as §1

S. marcescens S2 = conditions: S. marcescens S2
In short: as §1

E. coli 387-1 = conditions: E. coli 387-1
In short: as §1

K. pneumoniae 35 = conditions: K. pneumoniae 35
In short: as §1

S. faecalis C1 = conditions: S. faecalis C1
In short: as §1

E. coli 5152 = conditions: E. coli 5152
In short: as §1

S. marcescens S1 = conditions: S. marcescens S1
In short: as §1

P. aeruginosa 8780 = conditions: P. aeruginosa 8780
In short: as §1

P. aeruginosa 5712 = conditions: P. aeruginosa 5712
In short: as §1

S. marcescens 5805 = conditions: S. marcescens 5805
In short: as §1

E. coli 503-455 = conditions: E. coli 503-455
In short: as §1

S. marcescens S4 = conditions: S. marcescens S4
In short: as §1

P. aeruginosa B = tested on: P. aeruginosa B
In short: as §1

P. mirabilis 620A = conditions: P. mirabilis 620A
In short: as §1

K. pneumoniae 4964 = conditions: K. pneumoniae 4964
In short: as §1

P. aeruginosa 6148B = tested on: P. aeruginosa 6148B
In short: as §1

P. vulgaris 101 = conditions: P. vulgaris 101
In short: as §1

S. aureus 1059B = tested on: S. aureus 1059B
In short: as §1

P. aeruginosa Stone 130 = tested on: P. aeruginosa Stone 130
In short: as §1

E. coli 4 = conditions: E. coli 4
In short: as §1

K. pneumoniae 503-964 = conditions: K. pneumoniae 503-964
In short: as §1

K. pneumoniae 503-994 = conditions: K. pneumoniae 503-994
In short: as §1

S. marcescens S5 = conditions: S. marcescens S5
In short: as §1

S. pyogenes 503-782 = conditions: S. pyogenes 503-782
In short: as §1

S. marcescens SM = tested on: S. marcescens SM
In short: as §1

E. aerogenes 83 = conditions: E. aerogenes 83
In short: as §1

E. aerogenes 8 = conditions: E. aerogenes 8
In short: as §1

E. cloacae 9570A = tested on: E. cloacae 9570A
In short: as §1

E. coli 48 = conditions: E. coli 48
In short: as §1

S. aureus Giorgio = conditions: S. aureus Giorgio
In short: as §1

S. marcescens S147 = conditions: S. marcescens S147
In short: as §1

P. mirabilis 2 = conditions: P. mirabilis 2
In short: as §1

P. aeruginosa 5700 = conditions: P. aeruginosa 5700
In short: as §1

With `CC1(C)S[C@@H]2[C@H](N=CN3CCCC(CCn4ccnc4)CC3)C(=O)N2[C@H]1C(=O)O.Cl.O` (single isomer, unassigned) [D] the MIC (E. aerogenes 503-478) was 8 µg/mL, the MIC (S. marcescens S714) was 1 µg/mL and the MIC (E. cloacae 6951) was 16 µg/mL. For the same compound, the MIC (E. cloacae 214) was 0.25 µg/mL, the MIC (E. cloacae 9295) was 0.5 µg/mL and the MIC (S. aureus Smith) was 32 µg/mL. It also gave an MIC (C. diversus CDC 1663-72) of 0.125 µg/mL, an MIC (K. pneumoniae 8357) of 0.25 µg/mL and an MIC (K. pneumoniae HE7) of over 128 µg/mL. For the same compound, the MIC (P. vulgaris 100) was 16 µg/mL, the MIC (S. marcescens S2) was 0.5 µg/mL and the MIC (E. coli 387-1) was 0.125 µg/mL. For the same compound, the MIC (K. pneumoniae 35) was 0.25 µg/mL, the MIC (S. faecalis C1) was over 128 µg/mL and the MIC (E. coli 5152) was 16 µg/mL. For the same compound, the MIC (S. marcescens S1) was 0.5 µg/mL, the MIC (P. aeruginosa 8780) was over 128 µg/mL and the MIC (P. aeruginosa 5712) was over 128 µg/mL. It also gave an MIC (S. marcescens 5805) of 2 µg/mL, an MIC (E. coli 503-455) of 1 µg/mL and an MIC (S. marcescens S4) of 1 µg/mL. The MIC (P. aeruginosa B) was 0.25 µg/mL, the MIC (P. mirabilis 620A) was 64 µg/mL and the MIC (K. pneumoniae 4964) was 1 µg/mL. For the same compound, the MIC (P. aeruginosa 6148B) was over 128 µg/mL, the MIC (P. vulgaris 101) was 32 µg/mL and the MIC (S. aureus 1059B) was 128 µg/mL. The MIC (P. aeruginosa Stone 130) was over 128 µg/mL, the MIC (E. coli 4) was 0.125 µg/mL and the MIC (K. pneumoniae 503-964) was 0.25 µg/mL. The MIC (K. pneumoniae 503-994) was 0.125 µg/mL, the MIC (S. marcescens S5) was 2 µg/mL and the MIC (S. pyogenes 503-782) was over 128 µg/mL. The MIC (S. marcescens SM) was 0.25 µg/mL, the MIC (E. aerogenes 83) was 16 µg/mL and the MIC (E. aerogenes 8) was 128 µg/mL. For the same compound, the MIC (E. cloacae 9570A) was 0.5 µg/mL, the MIC (E. coli 48) was 0.125 µg/mL and the MIC (S. aureus Giorgio) was 16 µg/mL. It also gave an MIC (S. marcescens S147) of 0.125 µg/mL, an MIC (P. mirabilis 2) of 0.5 µg/mL and an MIC (P. aeruginosa 5700) of 0.5 µg/mL.
